The target of test [1] is T1, KMT9 (Homo sapiens, UniProt Q9Y5N5).
T1 sequence (Q9Y5N5 1-214): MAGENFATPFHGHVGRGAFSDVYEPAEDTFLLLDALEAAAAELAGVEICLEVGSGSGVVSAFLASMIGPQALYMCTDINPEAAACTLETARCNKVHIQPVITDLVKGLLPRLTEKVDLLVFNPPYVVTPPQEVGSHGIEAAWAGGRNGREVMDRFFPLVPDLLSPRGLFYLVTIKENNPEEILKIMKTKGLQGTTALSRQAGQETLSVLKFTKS
T1 sequence (Q9UI30 1-120 isoform Q9UI30-2 partner): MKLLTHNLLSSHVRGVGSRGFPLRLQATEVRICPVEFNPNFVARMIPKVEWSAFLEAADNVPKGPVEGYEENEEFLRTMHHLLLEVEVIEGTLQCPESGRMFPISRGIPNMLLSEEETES
The experiment in a line: Microscale thermophoresis (MST) KMT9 binding. As to conditions: microscale thermophoresis, His-tag labelled KMT9 (20 nM); read-out: MST. Put shortly: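 Kd from microscale thermophoresis: compound series against 20 nM His-KMT9 labelled via RED-Tris-NTA, buffer 25 mM HEPES (pH 7.5)/100 mM NaCl/1 mM DTT/0.05% Tween, 40% MST power, 100% LED. Reported as classes: A ≤10 nM, B >10–100 nM, C >100–1000 nM, D >1000 nM.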

In test [2] the target is T1, KMT9. The experiment in a line: KMT9 methyltransferase inhibition assay, 3H-SAM scintillation (entries 1-154). It is filed as biochemical. The following applies: entries 1-154: 3H-SAM assay, 25 nM KMT9, 5 μM ETF1. Put shortly: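 Tritium transfer from SAM (0.3 μM 3H-SAM, 0.7 μM unlabelled, final) to 5 μM ETF1 fragment by 25 nM KMT9 was measured after 2 h at 30° C, pH 8.5. Precipitated peptide was collected on filters and scintillation counted; IC50 came from a four-parameter fit of inhibition normalised to controls.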

The target in test [3] is T1, KMT9. The experiment in a line: KMT9 thermal shift assay (SyproOrange). Type of test: binding. As to conditions: ΔTm; 500 µM compound, 2 μM KMT9, 5X SO; read-out: Thermal shift. Put shortly: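 ΔTm versus DMSO-only control is reported in bins (>20 K, 15–20 K, 10–15 K, ≤10 K), using Tm from Boltzmann sigmoidal fits of SyproOrange melt curves. KMT9 with compound in pH 8.5 BTP buffer containing MgCl2 and DTT was preincubated at 25° C, then ramped 1° C per 15 s up to 95° C.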

Consider `Nc1ncnc2c1c(-c1ccn[nH]1)cn2[C@@H]1C[C@H](CNCCCNCCc2ccccc2)[C@@H](O)[C@H]1O` [472 (346), (1R,2S,3R,5R)-3-(4-Amino-5-(1H-pyrazol-5-yl)-7H-pyrrolo[2,3-d]pyrimidin-7-yl)-5-(((3-(phenethylamino)propyl)amino)methyl) cyclopentane-1,2-diol], for which the Kd at KMT9 [1] fell in the range of 10 to 100 nM. Also, on KMT9 [2], the IC50 (as a rule, the midpoint of a concentration-inhibition curve) lay within 100 to 1000 nM. Besides, the ΔTm at 500 µM at KMT9 [3] was in the range of 15 to 20 °C.

With `Nc1ncnc2c1c(-c1nc(Cc3ccccc3)cs1)cn2[C@@H]1C[C@H](C2CCNCC2)[C@@H](O)[C@H]1O` [Compound 488, (1R,2S,3R,5R)-3-(4-amino-5-(4-benzylthiazol-2-yl)-7H-pyrrolo[2,3-d]pyrimidin-7-yl)-5-(piperidin-4-yl)cyclopentane-1,2-diol], the Kd on KMT9 [1] fell in the range of 10 to 100 nM. Further, the IC50 on KMT9 [2] fell in the range of 1000 to 10000 nM. Moreover, on KMT9 [3], the ΔTm at 500 µM was in the range of 10 to 15 °C.

On to `CCC(=O)NCCCNC[C@H]1O[C@@H](n2cnc3c(N)ncnc32)[C@H](O)[C@@H]1O` [313 (212), N-(3-((((2R,3S,4R,5R)-5-(6-amino-9//-purin-9-yl)-3,4-dihydroxytetrahydrofuran-2-yl)methyl)amino)propyl)propionamide], for which the Kd at KMT9 [1] was over 1000 nM. Besides, the IC50 against KMT9 [2] is over 10000 nM. Further, the ΔTm at 500 µM at KMT9 [3] was at most 10 °C.

`CNc1ncnc2c1ccn2[C@@H]1C[C@H](C(=O)NCCCNCCc2cccc(Oc3ccccc3)c2)[C@@H](O)[C@H]1O` [354 (258), (1S,2R,3S,4R)-2,3-dihydroxy-4-(4-(methylamino)-7H-pyrrolo[2,3-d]pyrimidin-7-yl)-N-(3-((3-phenoxyphenethyl)amino)propyl) cyclopentane-1-carboxamide]: at KMT9 [1], the Kd lay in the range of 10 to 100 nM. The molecule also gave an IC50 against KMT9 [2] of 1000 to 10000 nM. Further, the ΔTm at 500 µM on KMT9 [3] was 15 to 20 °C.

Consider `CNc1ncnc2c1ccn2[C@@H]1C[C@H](C(=O)NCCCNCCc2ccc(Oc3ccc(Cl)cc3)c(F)c2)[C@@H](O)[C@H]1O` [355 (259), (1S,2R,3S,4R)—N-(3-((4-(4-chlorophenoxy)-3-fluorophenethyl)amino)propyl)-2,3-dihydroxy-4-(4-(methylamino)-7H-pyrrolo[2,3-a]pyrimidin-7-yl) cyclopentane-1-carboxamide], for which the Kd on KMT9 [1] was in the range of 100 to 1000 nM. For the same molecule, on KMT9 [2], the IC50 lay within 100 to 1000 nM. Besides, the ΔTm at 500 µM at KMT9 [3] fell in the range of 10 to 15 °C.

On to `Nc1ncnc2c1ncn2[C@@H]1O[C@H](C(=O)NC2CCN(CCc3ccccc3)CC2)[C@@H](O)[C@H]1O` [325 (228), (2S,3S,4R,5R)-5-(6-amino-9H-purin-9-yl)-3,4-dihydroxy-N-(1-phenethylpiperidin-4-yl) tetrahydrofuran-2-carboxamide], for which the Kd at KMT9 [1] is over 1000 nM. The same molecule gave an IC50 against KMT9 [2] of over 10000 nM. Moreover, the ΔTm at 500 µM at KMT9 [3] is at most 10 °C.

For the molecule `CNc1ncnc2c1ccn2[C@@H]1C[C@H](CN(C[C@H]2CCCNC2)c2cncs2)[C@@H](O)[C@H]1O` [438 (310), (1R,2S,3R,5R)-3-[4-(Methylamino)pyrrolo[2,3-d]pyrimidin-7-yl]-5-({[(3S)-piperidin-3-ylmethyl](1,3-thiazol-5-yl)amino}methyl) cyclopentane-1,2-diol], the Kd on KMT9 [1] was over 1000 nM. The same molecule had an IC50 against KMT9 [2] of over 10000 nM. Moreover, the ΔTm at 500 µM at KMT9 [3] is at most 10 °C.

`CCC(=O)NCCNC[C@H]1O[C@@H](n2cnc3c(N)ncnc32)[C@H](O)[C@@H]1O` [315 (216), N-(2-((((2R,3S,4R,5R)-5-(6-amino-9H-purin-9-yl)-3,4-dihydroxytetrahydrofuran-2-yl)methyl)amino)ethyl)propionamide]: the Kd at KMT9 [1] was over 1000 nM. Further, the IC50 on KMT9 [2] was over 10000 nM. For the same molecule, on KMT9 [3], the ΔTm at 500 µM was at most 10 °C.

For `Nc1ncnc2c1c(Br)cn2[C@@H]1C[C@H](CNCCCNCCc2ccccc2)[C@@H](O)[C@H]1O` [463 (337), (1R,2S,3R,5R)-3-(4-Amino-5-bromo-7H-pyrrolo[2,3-d]pyrimidin-7-yl)-5-(((3-(phenethylamino)propyl)amino)methyl) cyclopentane-1,2-diol], the Kd at KMT9 [1] lay within 10 to 100 nM. At KMT9 [2], this molecule returned an IC50 of over 10000 nM. Also, the ΔTm at 500 µM at KMT9 [3] was in the range of 15 to 20 °C.

Regarding `CNc1ncnc2c1ccn2[C@@H]1C[C@H](C(=O)NCCCNCc2cccc(Oc3ccccc3)c2)[C@@H](O)[C@H]1O` [353 (257), (1S,2R,3S,4R)-2,3-dihydroxy-4-(4-(methylamino)-7H-pyrrolo[2,3-d]pyrimidin-7-yl)-N-(3-((3-phenoxybenzyl)amino)propyl) cyclopentane-1-carboxamide], on KMT9 [1], the Kd was in the range of 100 to 1000 nM. At KMT9 [2], the IC50 lay in the range of 1000 to 10000 nM. Besides, at KMT9 [3], the ΔTm at 500 µM was in the range of 10 to 15 °C.

For the molecule `CNc1ncnc2c1ccn2[C@@H]1C[C@H](CN2CCC[C@@]23CCCNC3)[C@@H](O)[C@H]1O` (single isomer, unassigned) [450 (322)], the Kd at KMT9 [1] is over 1000 nM. In addition, the IC50 against KMT9 [2] is over 10000 nM. On KMT9 [3], the ΔTm at 500 µM is at most 10 °C.

On to `C=Cc1cn([C@@H]2C[C@H](CNCCCNCCc3ccccc3)[C@@H](O)[C@H]2O)c2ncnc(C)c12` [Compound 610, (1R,2S,3R,5R)-3-(4-Methyl-5-vinyl-7H-pyrrolo[2,3-d]pyrimidin-7-yl)-5-(((3-(phenethylamino)propyl)amino)methyl)cyclopentane-1,2-diol], for which the Kd on KMT9 [1] is over 1000 nM. This molecule yielded an IC50 at KMT9 [2] of over 10000 nM. Also, the ΔTm at 500 µM on KMT9 [3] was at most 10 °C.

Turning to `CCc1cn([C@@H]2C[C@H](CNCCCNCCc3ccccc3)[C@@H](O)[C@H]2O)c2ncncc12` [Compound 609, (1R,2S,3R,5R)-3-{5-ethylpyrrolo[2,3-d]pyrimidin-7-yl}-5-[({3-[(2-phenylethyl)amino]propyl}amino)methyl]cyclopentane-1,2-diol], on KMT9 [1], the Kd fell in the range of 100 to 1000 nM. The IC50 against KMT9 [2] is over 10000 nM. Moreover, at KMT9 [3], the ΔTm at 500 µM is at most 10 °C.

With `Nc1ncnc2c1ncn2[C@@H]1O[C@H](C(=O)NCCCNC(=O)Cc2ccccc2)[C@@H](O)[C@H]1O` [303 (200)], the Kd at KMT9 [1] was over 1000 nM. Also, the IC50 against KMT9 [2] is over 10000 nM. Further, the ΔTm at 500 µM on KMT9 [3] is at most 10 °C.

In the case of `Nc1ncnc2c1ncn2[C@@H]1O[C@H](C(=O)NCCCNCCc2cccc(Oc3ccccc3)c2)[C@@H](O)[C@H]1O` [299 (196), (2S,3S,4R,5R)-5-(6-amino-9H-purin-9-yl)-3,4-dihydroxy-N-(3-((3-phenoxyphenethyl)amino)propyl) tetrahydrofuran-2-carboxamide], the Kd on KMT9 [1] was in the range of 100 to 1000 nM. The molecule further registered an IC50 on KMT9 [2] of 1000 to 10000 nM. The ΔTm at 500 µM at KMT9 [3] was 10 to 15 °C.

Consider `CNc1ncnc2c1ccn2[C@@H]1C[C@H](C#CCNCCc2ccccc2)[C@@H](O)[C@H]1O` [426 (297), (1R,2S,3R,5R)-3-[4-(methylamino)pyrrolo[2,3-d]pyrimidin-7-yl]-5-{3-[(2-phenylethyl)amino]prop-1-yn-1-yl}cyclopentane-1,2-diol], for which, on KMT9 [1], the Kd is over 1000 nM. This molecule also displayed an IC50 on KMT9 [2] of over 10000 nM. Also, the ΔTm at 500 µM at KMT9 [3] is at most 10 °C.

As for `N#Cc1cn([C@@H]2C[C@H](CNCCCNCCc3ccccc3)[C@@H](O)[C@H]2O)c2ncnc(N)c12` [483 (357), 4-Amino-7-((1R,2S,3R,4R)-2,3-dihydroxy-4-(((3-(phenethylamino)propyl)amino)methyl)cyclopentyl)-7H-pyrrolo[2,3-d]pyrimidine-5-carbonitrile], the Kd on KMT9 [1] was in the range of 100 to 1000 nM. The IC50 on KMT9 [2] is 1000 to 10000 nM. Further, the ΔTm at 500 µM on KMT9 [3] is 10 to 15 °C.

In the case of `CCC(=O)NCCCNC(=O)[C@H]1O[C@@H](n2cnc3c(N)ncnc32)[C@H](O)[C@@H]1O` [305 (204), (2,3S,4R,5R)-5-(6-amino-9//-purin-9-yl)-3,4-dihydroxy-N-(3-propionamidopropyl) tetrahydrofuran-2-carboxamide], the Kd at KMT9 [1] is over 1000 nM. Also, at KMT9 [2], the IC50 was over 10000 nM. Also, the ΔTm at 500 µM at KMT9 [3] was at most 10 °C.

As for `CNc1ncnc2c1ccn2[C@@H]1C[C@H](CNCCCNCCc2cccc(N(C)c3ccccc3)c2)[C@@H](O)[C@H]1O` [289 (186), (1S,2R,3R,5R)-3-(((3-((3-(methyl(phenyl)amino)phenethyl)amino)propyl)amino)methyl)-5-(4-(methylamino)-7H-pyrrolo[2,3-d]pyrimidin-7-yl) cyclopentane-1,2-diol], at KMT9 [1], the Kd is over 1000 nM. In addition, the IC50 on KMT9 [2] is over 10000 nM. For the same molecule, the ΔTm at 500 µM at KMT9 [3] lay within 10 to 15 °C.

Take `Nc1ncnc2c1c(-c1ccncn1)cn2[C@@H]1C[C@H](CNCCCNCCc2ccccc2)[C@@H](O)[C@H]1O` [471 (345), (1R,2S,3R,5R)-3-(4-Amino-5-(pyrimidin-4-yl)-7H-pyrrolo[2,3-d]pyrimidin-7-yl)-5-(((3-(phenethylamino)propyl)amino)methyl) cyclopentane-1,2-diol]: the Kd on KMT9 [1] fell in the range of 100 to 1000 nM. The IC50 against KMT9 [2] lay within 100 to 1000 nM. Further, the ΔTm at 500 µM on KMT9 [3] fell in the range of 15 to 20 °C.

For the origin of these results see US20250188110A1, “SPECIFIC SMALL MOLECULE INHIBITORS THAT BLOCK KMT9 METHYLTRANSFERASE ACTIVITY AND FUNCTION” (ALBERT-LUDWIGS-UNIVERSITÄT FREIBURG, priority 2021, published 2025).
